Data taken from patent US9545393B2, “Methods and compositions for treating pain” (The Board of Trustees of the Leland Stanford Junior …, priority 2012, dated 2017).
Entries after “also recorded” stand apart in the source; their conditions may differ.

Key:
Format in all cases: in vivo, rat
mast cell chymase = assay: Western blot of mast cell chymase in paw after carrageenan; conditions: rats, 3 hours after carrageenan; Alda-1 versus vehicle
Method: (§1) Biochemical Studies In Rats and Mice. Protein was isolated from rat paw tissue at 3 hours after treatment or from liver tissue of mutant or wild type mice. Tissues were homogenized in buffer containing (Hepes 10 mM, NaCl 0.9%, EGTA 1 mM, DTPA 100 μM, Triton-X 1%, Protease and Phosphatase inhibitors (AEBSF, Aprotinin, Bestatin, E-64, Leupeptin, Pepstatin A, Sodium orthovanadate, Sodium molybdate, Sodium tartrate, Imidazole, Cantharidin, (−)-p-Bromolevamisole oxalate and Calyculin A). The samples were centrifuged at 700 g for 5 min at 4° C. Mitochondrial fraction from liver was obtained as previously described (Chen, et al. (2008) Activation of aldehyde dehydrogenase-2 reduces ischemic damage to the heart. Science 321, 1493-1495; Sun, L., et al. ALDH2 activator inhibits increased myocardial infarction injury by nitroglycerin tolerance. Sci Transl Med 3, 107ra111). Activation of aldehyde dehydrogenase-2 reduces ischemic damage to the heart. Science 2008; 321:1493-5). The protein concentration was determined in the supernatants by using Bradford (Bradford, M. M. (1976). A rapid and sensitive method for the quantitation of microgram quantities of protein utilizing the principle of protein-dye binding. Anal Biochem 72, 248-254).
(§2) Western blot analysis. […] Quantification analysis of blots was performed with Image J software, using GAPDH as a loading control.

neutrophil elastase = assay: Western blot of neutrophil elastase in paw after carrageenan; conditions: rats, carrageenan group treated with Alda-1; Western blot quantification
Method: as §1, §2

[1] = test system: 4-hydroxynonenal (4-HNE) protein adducts; assay: Western blot of 4-HNE protein adducts in inflamed paw; conditions: rats, 3 hours after carrageenan; P<0.01
Method: as §1, §2

O=C(NCc1ccc2c(c1)OCO2)c1c(Cl)cccc1Cl [Alda-1, N-(1,3-benzodioxol-5-ylmethyl)-2,6-dichlorobenzamide]
Mast cell chymase level in the paw (mast cell chymase): no differences; also recorded: increased equally
Neutrophil elastase (marker of inflammation) (neutrophil elastase): 220±26
4-HNE-protein adduct levels in the inflamed paw [1]: reduced
